Measured values taken from US8575146B2, “Pharmaceutical uses of staurosporine derivatives” (Novartis AG, priority 2003, dated 2013).

Experiments:
[1] = tested on: BR and C2 canine mastocytoma cells; assay: XTT-based proliferation assay of canine mast cell tumor cell lines; details: 0.1-10 μM; 48-72 hours; BR or C2 cells
Description: (§1) The C2 cell line has an internal tandem duplication (ITD) of the KIT juxtamembrane region.

[2] = tested on: systemic mastocytosis with D816V KIT mutation; assay: Case of a patient with systemic mastocytosis / mast cell leukemia treated with PKC412; type: in vivo, human
Description: They were supported with red blood cell and platelet transfusions, antihistamine blockade, and cromolyn sodium.

[3] = target: T1, constitutively activated mutant canine KIT in BR and C2 cells (Canis lupus familiaris, UniProt O97799, L579P); assay: KIT autophosphorylation in BR and C2 canine mastocytoma cell lysates (anti-P-Tyr Western immunoblot); type: cell-based
T1 construct: Lysates prepared from BR or C2 cells are probed with an anti-P-Tyr antibody; endogenous in cells; host or cells: BR canine mastocytoma cell line
T1 sequence (O97799 28-979 L579P): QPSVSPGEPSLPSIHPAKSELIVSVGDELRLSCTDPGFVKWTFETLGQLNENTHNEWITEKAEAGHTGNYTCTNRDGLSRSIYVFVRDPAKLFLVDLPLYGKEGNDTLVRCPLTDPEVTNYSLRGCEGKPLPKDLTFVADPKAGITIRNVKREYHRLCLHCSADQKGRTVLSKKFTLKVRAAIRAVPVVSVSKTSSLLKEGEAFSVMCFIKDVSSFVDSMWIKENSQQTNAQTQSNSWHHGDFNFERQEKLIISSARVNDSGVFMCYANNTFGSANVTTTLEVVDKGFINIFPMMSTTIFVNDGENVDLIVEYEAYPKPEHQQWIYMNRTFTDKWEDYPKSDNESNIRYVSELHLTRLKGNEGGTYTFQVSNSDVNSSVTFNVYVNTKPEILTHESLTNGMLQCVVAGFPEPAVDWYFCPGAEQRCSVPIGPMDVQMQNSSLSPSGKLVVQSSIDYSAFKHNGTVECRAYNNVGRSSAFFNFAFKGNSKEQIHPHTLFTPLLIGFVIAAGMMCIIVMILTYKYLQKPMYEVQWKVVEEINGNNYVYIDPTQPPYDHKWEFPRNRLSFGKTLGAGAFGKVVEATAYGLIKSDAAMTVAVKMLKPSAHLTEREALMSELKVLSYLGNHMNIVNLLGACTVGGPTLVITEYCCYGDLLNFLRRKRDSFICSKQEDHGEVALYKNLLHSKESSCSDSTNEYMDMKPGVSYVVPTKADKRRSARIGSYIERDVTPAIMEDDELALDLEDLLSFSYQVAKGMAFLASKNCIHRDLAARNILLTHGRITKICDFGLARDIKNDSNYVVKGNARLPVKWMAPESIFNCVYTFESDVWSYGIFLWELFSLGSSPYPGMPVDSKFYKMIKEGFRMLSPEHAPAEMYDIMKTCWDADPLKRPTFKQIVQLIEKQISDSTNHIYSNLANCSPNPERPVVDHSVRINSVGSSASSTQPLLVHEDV
Description: as §1

## CO[C@@H]1[C@H](N(C)C(=O)c2ccccc2)C[C@H]2O[C@]1(C)n1c3ccccc3c3c4c(c5c6ccccc6n2c5c31)C(=O)NC4 [PKC412, N-[(9S, 10R,11R,13R)-2,3,10,11,12,13-hexahydro-10-methoxy-9-methyl-1-oxo-9,13-epoxy-1H,9H-diindolo[1,2,3-gh:3′,2′,1′-lm]pyrrolo[3,4j][1,7]benzodiazonin-11-yl]-N-methylbenzamide]
[1]
  proliferation decreased compared to cells treated with media only: 90-95%
[2]; 100 mg twice daily orally, later 75 mg po tid
  tolerability / adverse events: well tolerated without any significant adverse events
[2]; PKC412 stopped on day #102
  day on which patient expired: 111 days
[2]; after 1 month (about day 32)
  serum histamine level: 1031 ng/dL
[2]; cycle 2
  Transient platelet-transfusion independence, duration: 2-3 weeks
[2]; cycle 2, during transient platelet-transfusion independence
  platelets: 20,000-25,000 /mm3
[2]; cycle 3
  Serum histamine: 2525 ng/dL
[2]; cycle 3, when PKC412 stopped on day #102
  bilirubin (total): 14 mg/dL
[2]; day 32 of treatment
  circulating mast cells: < 5%
  white blood cell count: normal
[2]; end of cycle 1
  Bone marrow clusters of mast cells by IPOX: no changes
[2]; end of cycle 1 / after 1 month, 5-10% at presentation
  Bone marrow blasts: < 5%
[2]; end of cycle 1 / after 1 month, from 20% before therapy
  Karnofsky performance status: 70%
[2]; end of cycle 1, 100 mg twice daily orally, 28-day cycles
  Response (criteria of Valent et al): Partial Response
[2]; end of cycle 1, from 2.8
  direct bilirubin: 1.1 mg/dL
[2]; end of cycle 1, from 4.8
  total bilirubin: 2.1 mg/dL
[2]; end of cycle 1, from 40-50%
  Peripheral blood mast cell numbers: < 10%
[2]; end of cycle 1, from 769
  LDH: 239 IU/L
[2]; end of cycle 1, from 7000, normal <100
  Serum histamine: 1000 ng/dL
[2]; end of cycle 2
  Bone marrow blasts: 10-15%
  Bone marrow mast cell clusters: no significant change
  Peripheral blood mast cell numbers: < 10%
  Response: Maintenance of Partial Response
  Serum histamine: 800 to 1200 ng/dL
  serum tryptase: > 200 µg/L
[2]; end of cycle 2, from 1.1
  direct bilirubin: 0.7 mg/dL
[2]; end of cycle 2, from 2.1
  total bilirubin: 1.3 mg/dL
[2]; end of cycle 3, dose increased to 75 mg po tid on day #91
  Response: Disease Progression
[3]; 0.1 μM dose, BR or C2 cells, 90 minutes
  Inhibition of KIT autophosphorylation: Near complete inhibition
[3]; 0.001-0.01 μM doses, BR or C2 cells, 90 minutes
  autophosphorylation of c-kit: Limited autophosphorylation
[3]; 10 and 1.0 μM doses, BR or C2 cells, 90 minutes
  Inhibition of KIT autophosphorylation: complete inhibition
[3]; PKC412 treated BR or C2 cells
  expression of c-kit protein (membrane reprobed with anti-c-kit antibody): no change
